Experimental data taken from PubChem BioAssay AID1919015 (Molecular Pharmacology Branch, DTP, NCI, 2023).

System: OVCAR-5 complex spheroids with HUVEC/MSC, viability, % test/control
Test: Anticancer human tumor OVCAR-5 cell line growth inhibition [AhR];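 note: spheroids exposed to compounds for 7 days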;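 for viability, T/C: 100% = DMSO vehicle control wells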
Conditions: for IC50: curve of first compound; for viability, T/C: stronger effect = lower value
Source text: Multicellular complex tumor spheroid response to aryl hydrocarbon receptor antagonists in combination with a variety of drugs and investigational agents in selected tumor cell lines
The current study was undertaken to assess response to aryl hydrocarbon receptor antagonists in combination with standard-of-care drugs and investigational agents in solid tumor complex spheroid models. Complex spheroids include a stromal component modeled by human endothelial cells (HUVEC) and fibroblasts modeled by human mesenchymal stem cells (MSCs). The concentration ranges selected for each drug and investigational agent were based upon clinically achievable concentrations if the clinical Cmax of the agent was known.
Compounds. The drugs and investigational agents: BAY 2416964 (NSC825713), GNF351 (NSC835774), CH-223191 (NSC835775), CPI-455 (NSC825282), aza-TdCyd (NSC777586), decitabine (NSC127716), belinostat (NSC758774), entinostat (NSC756642), pevonedistat (NSC761192), tazemetostat (NSC777109), talazoparib (NSC765396), olaparib (NSC753686), selinexor (NSC780203), nedisertib (M3814, NSC802822), bortezomib (NSC756655), venetoclax (NSC766270), doxorubicin (NSC123127), elimusertib (BAY189344, NSC800525), ceralasertib (AZD6738, NSC777638), TAK-243 (NSC785004), alisertib (NSC759677), etoposide (NSC141540), topotecan (NSC609699), eribulin (NSC707389), gemcitabine (NSC613327), carboplatin (NSC241240), cisplatin (NSC119875), and SN-38 (NSC673596) were obtained from the National Cancer Institute (NCI) Developmental Therapeutics Program Chemical Repository (32). The FDA-approved anticancer drug set is available from the Developmental Therapeutics Program at https://dtp.cancer.gov/organization/dscb/obtaining/available plates.htm. […] The stock solutions were prepared in dimethyl sulfoxide (DMSO, Sigma-Aldrich, St. Louis, MO, cat. D2650), except for the platinum compounds which were prepared in saline (Quality Biological, Gaithersburg, MD, cat. 114-055-101), at 800-fold the tested concentration and stored at -70 degrees C prior to their use. All drugs and investigational agents were tested over a range starting from a high concentration at or near the clinical Cmax and decreasing in half-log increments. If the clinical Cmax for an agent had not been determined, the highest concentration tested was 10 microM (Table 1).
Cell Culture. All cells were maintained in an incubator at 37 degrees C and 5% CO2 with 95% humidity. The PDC lines were cultured according to standard operating procedures established by the NCI PDMR (https://pdmr.cancer.gov). Briefly, all PDCs were thawed and cultured in Matrigel-coated flasks prepared with a working solution of 1X Ham's F-12 nutrient mix, without supplementation (Invitrogen, Waltham, MA, cat. 11765054), 100 U/mL penicillin-streptomycin (Invitrogen, cat. 15140122), and 2.5% Matrigel (Corning Inc., Corning, NY, cat. 354248) for the first three passages. All PDCs were cultured in complete DMEM/F-12 media containing advanced DMEM/F-12 (Invitrogen, cat. 12634028), 4.9% defined fetal bovine serum, heat inactivated (HyClone Laboratories Inc., Logan, UT, cat. SH30070.03HI), 389 ng/mL hydrocortisone (Sigma-Aldrich, cat. H4001), 9.7 ng/mL human EGF recombinant protein (Invitrogen, cat. PHG0313), 23.4 microg/mL adenine (Sigma-Aldrich, cat. A2786), 97.3 U/mL penicillin-streptomycin (Invitrogen, cat. 15140122), 1.9 mM L-glutamine (Invitrogen, cat. 25030081), and 9.7 microM Y-27632 dihydrochloride (Tocris Bioscience, Bristol, United Kingdom, cat. 1254). The PDCs were cultured in complete DMEM/F12 media without 10 microM Y-27632 dihydrochloride for at least two passages prior to the screen. The established cell lines NCI-H1341 and […] were cultured in DMEM/F-12, HEPES (Invitrogen, cat. 11330032), 5% defined fetal bovine serum (HyClone Laboratories Inc., cat. SH30070.03), ITS premix universal culture supplement [insulin (5 microg/mL), transferrin (5 microg/mL), and selenious acid (5 ng/mL)] […]

[1] = second compound 0.1 µM, first compound 0.0316 µM
[2] = second compound 0.1 µM, first compound 0.1 µM
[3] = second compound 0.1 µM, first compound 0.316 µM
[4] = second compound 0.1 µM, first compound 1 µM
[5] = second compound 0.1 µM, first compound 3.16 µM
[6] = second compound 0.1 µM, first compound 10 µM
[7] = second compound 0.316 µM, first compound 0.0316 µM
[8] = second compound 0.316 µM, first compound 0.1 µM
[9] = second compound 0.316 µM, first compound 0.316 µM
[10] = second compound 0.316 µM, first compound 1 µM
[11] = second compound 0.316 µM, first compound 3.16 µM
[12] = second compound 0.316 µM, first compound 10 µM
[13] = second compound 1 µM, first compound 0.0316 µM
[14] = second compound 1 µM, first compound 0.1 µM
[15] = second compound 1 µM, first compound 0.316 µM
[16] = second compound 1 µM, first compound 1 µM
[17] = second compound 1 µM, first compound 3.16 µM
[18] = second compound 1 µM, first compound 10 µM
[19] = second compound 3.16 µM, first compound 0.0316 µM
[20] = second compound 3.16 µM, first compound 0.1 µM
[21] = second compound 3.16 µM, first compound 0.316 µM
[22] = second compound 3.16 µM, first compound 1 µM
[23] = second compound 3.16 µM, first compound 3.16 µM
[24] = second compound 3.16 µM, first compound 10 µM
[25] = second compound 10 µM, first compound 0.0316 µM
[26] = second compound 10 µM, first compound 0.1 µM
[27] = second compound 10 µM, first compound 0.316 µM
[28] = second compound 10 µM, first compound 1 µM
[29] = second compound 10 µM, first compound 3.16 µM
[30] = second compound 10 µM, first compound 10 µM

**Q.** How did the IC50 (second compound 0.1 µM) turn out when `Nc1ccn(C2OC(CO)C(O)C2(F)F)c(=O)n1` (stereo not given) + Cc1cncc(-c2nc(NCCc3c[nH]c4ccccc34)c3ncn(C(C)C)c3n2)c1 was run?
**A.** < 31.6 nM

**Q.** And the IC50 (second compound 0.316 µM)?
**A.** < 31.6 nM

**Q.** What about the IC50 (second compound 1 µM) of the same compound?
**A.** < 31.6 nM

**Q.** What about the IC50 (second compound 3.16 µM) of the same compound?
**A.** < 31.6 nM

**Q.** And the IC50 (second compound 10 µM)?
**A.** < 31.6 nM

**Q.** What about the viability, T/C [1] of the same compound?
**A.** 33.2%

**Q.** And the viability, T/C [2]?
**A.** 30.1%

**Q.** What about the viability, T/C [3] of the same compound?
**A.** 31.2%

**Q.** And the viability, T/C [4]?
**A.** 33%

**Q.** And the viability, T/C [5]?
**A.** 33%

**Q.** And the viability, T/C [6]?
**A.** 31.6%

**Q.** And the viability, T/C [7]?
**A.** 33.6%

**Q.** And the viability, T/C [8]?
**A.** 30.9%

**Q.** And the viability, T/C [9]?
**A.** 32%

**Q.** What about the viability, T/C [10] of the same compound?
**A.** 32%

**Q.** What about the viability, T/C [11] of the same compound?
**A.** 32.2%

**Q.** What about the viability, T/C [12] of the same compound?
**A.** 31.6%

**Q.** And the viability, T/C [13]?
**A.** 33.6%

**Q.** And the viability, T/C [14]?
**A.** 31.5%

**Q.** And the viability, T/C [15]?
**A.** 34.1%

**Q.** What about the viability, T/C [16] of the same compound?
**A.** 33%

**Q.** What about the viability, T/C [17] of the same compound?
**A.** 34.9%

**Q.** What about the viability, T/C [18] of the same compound?
**A.** 32%

**Q.** And the viability, T/C [19]?
**A.** 33.6%

**Q.** And the viability, T/C [20]?
**A.** 33.4%

**Q.** What about the viability, T/C [21] of the same compound?
**A.** 32%

**Q.** And the viability, T/C [22]?
**A.** 32.5%

**Q.** What about the viability, T/C [23] of the same compound?
**A.** 35%

**Q.** What about the viability, T/C [24] of the same compound?
**A.** 34.4%

**Q.** What about the viability, T/C [25] of the same compound?
**A.** 3.2%

**Q.** What about the viability, T/C [26] of the same compound?
**A.** 3.6%

**Q.** And the viability, T/C [27]?
**A.** 4.58%

**Q.** And the viability, T/C [28]?
**A.** 4.3%

**Q.** And the viability, T/C [29]?
**A.** 6.36%

**Q.** What about the viability, T/C [30] of the same compound?
**A.** 9.03%

**Q.** `Nc1ccccc1NC(=O)c1ccc(CNC(=O)OCc2cccnc2)cc1` + Cc1ccccc1N=Nc1ccc(NC(=O)c2ccnn2C)c(C)c1 was tested. Which IC50 (second compound 0.1 µM) did it give?
**A.** 913 nM

**Q.** What about the IC50 (second compound 0.316 µM) of the same compound?
**A.** 824 nM

**Q.** What about the IC50 (second compound 1 µM) of the same compound?
**A.** 856 nM

**Q.** And the IC50 (second compound 3.16 µM)?
**A.** 827 nM

**Q.** And the IC50 (second compound 10 µM)?
**A.** 1110 nM

**Q.** What about the viability, T/C [1] of the same compound?
**A.** 95.1%

**Q.** What about the viability, T/C [2] of the same compound?
**A.** 89.9%

**Q.** And the viability, T/C [3]?
**A.** 74.8%

**Q.** And the viability, T/C [4]?
**A.** 48.6%

**Q.** And the viability, T/C [5]?
**A.** 20.3%

**Q.** And the viability, T/C [6]?
**A.** 7.82%

**Q.** And the viability, T/C [7]?
**A.** 98.8%

**Q.** What about the viability, T/C [8] of the same compound?
**A.** 93.6%

**Q.** What about the viability, T/C [9] of the same compound?
**A.** 76.6%

**Q.** What about the viability, T/C [10] of the same compound?
**A.** 44.4%

**Q.** And the viability, T/C [11]?
**A.** 19.3%

**Q.** And the viability, T/C [12]?
**A.** 8.39%

**Q.** What about the viability, T/C [13] of the same compound?
**A.** 102%

**Q.** What about the viability, T/C [14] of the same compound?
**A.** 94.4%

**Q.** And the viability, T/C [15]?
**A.** 83.9%

**Q.** And the viability, T/C [16]?
**A.** 43.8%

**Q.** And the viability, T/C [17]?
**A.** 18.7%

**Q.** What about the viability, T/C [18] of the same compound?
**A.** 9.13%

**Q.** And the viability, T/C [19]?
**A.** 103%

**Q.** What about the viability, T/C [20] of the same compound?
**A.** 99.9%

**Q.** What about the viability, T/C [21] of the same compound?
**A.** 79.1%

**Q.** And the viability, T/C [22]?
**A.** 44.1%

**Q.** And the viability, T/C [23]?
**A.** 19%

**Q.** What about the viability, T/C [24] of the same compound?
**A.** 9.43%

**Q.** What about the viability, T/C [25] of the same compound?
**A.** 91.1%

**Q.** What about the viability, T/C [26] of the same compound?
**A.** 96.1%

**Q.** And the viability, T/C [27]?
**A.** 75.4%

**Q.** What about the viability, T/C [28] of the same compound?
**A.** 56%

**Q.** What about the viability, T/C [29] of the same compound?
**A.** 19.9%

**Q.** And the viability, T/C [30]?
**A.** 9.42%

**Q.** What does the source list for `COc1cccc2c1C(=O)c1c(O)c3c(c(O)c1C2=O)CC(O)(C(=O)CO)CC3OC1CC(N)C(O)C(C)O1` (stereo not given) + Cc1cncc(-c2nc(NCCc3c[nH]c4ccccc34)c3ncn(C(C)C)c3n2)c1?
**A.** IC50 (second compound 0.1 µM): 310 nM; IC50 (second compound 0.316 µM): 240 nM; IC50 (second compound 1 µM): 241 nM; IC50 (second compound 3.16 µM): < 31.6 nM; IC50 (second compound 10 µM): < 31.6 nM; viability, T/C [1]: 63.7%; viability, T/C [2]: 54.8%; viability, T/C [3]: 49%; viability, T/C [4]: 27.9%; viability, T/C [5]: 1.4%; viability, T/C [6]: 1.85%; viability, T/C [7]: 61.8%; viability, T/C [8]: 54%; viability, T/C [9]: 47.3%; viability, T/C [10]: 26.9%; viability, T/C [11]: 2.85%; viability, T/C [12]: 1.79%; viability, T/C [13]: 55.4%; viability, T/C [14]: 51.6%; viability, T/C [15]: 48.2%; viability, T/C [16]: 24.3%; viability, T/C [17]: 1.27%; viability, T/C [18]: 1.8%; viability, T/C [19]: 42.7%; viability, T/C [20]: 42.8%; viability, T/C [21]: 39.3%; viability, T/C [22]: 19.3%; viability, T/C [23]: 1.16%; viability, T/C [24]: 1.68%; viability, T/C [25]: 5.12%; viability, T/C [26]: 5.58%; viability, T/C [27]: 13.1%; viability, T/C [28]: 4.16%; viability, T/C [29]: 1.37%; viability, T/C [30]: 1.89%
